The NIST ThermoML archive (doi:10.1021/je0301040)
± gives the expanded uncertainty stated by the source.

Assay: xn = mol fraction of the nth substance listed

FC(Cl)(Cl)Cl [trichlorofluoromethane] + FC(F)Cl
Conditions	mass density [kg/m3]
424.96 K, 293.85 kPa, Fluid (supercritical or subcritical phases), Burnett expansion method, x1 = 0.832	11.0367 ± 0.22
424.96 K, 373.9 kPa, Fluid (supercritical or subcritical phases), Burnett expansion method, x1 = 0.832	14.1459 ± 0.28
424.96 K, 418.92 kPa, Fluid (supercritical or subcritical phases), Burnett expansion method, x1 = 0.832	15.9304 ± 0.32
424.96 K, 445.3 kPa, Gas, isochoric method, x1 = 0.832	131.354 ± 0.093
424.96 K, 567.37 kPa, Fluid (supercritical or subcritical phases), Burnett expansion method, x1 = 0.832	21.9341 ± 0.44
424.96 K, 662.1 kPa, Gas, isochoric method, x1 = 0.832	200.808 ± 0.14
424.96 K, 663.7 kPa, Gas, isochoric method, x1 = 0.832	200.808 ± 0.14
424.96 K, 715.19 kPa, Fluid (supercritical or subcritical phases), Burnett expansion method, x1 = 0.832	28.1109 ± 0.56
424.96 K, 797.38 kPa, Fluid (supercritical or subcritical phases), Burnett expansion method, x1 = 0.832	31.6606 ± 0.63
424.96 K, 967.2 kPa, Gas, isochoric method, x1 = 0.832	303.998 ± 0.094
424.96 K, 969 kPa, Gas, isochoric method, x1 = 0.832	303.998 ± 0.094
424.96 K, 1086 kPa, Fluid (supercritical or subcritical phases), Burnett expansion method, x1 = 0.832	44.6324 ± 0.9
424.96 K, 1298.4 kPa, Gas, isochoric method, x1 = 0.832	426.053 ± 0.33
424.96 K, 1299.4 kPa, Gas, isochoric method, x1 = 0.832	426.053 ± 0.33
424.96 K, 1617.2 kPa, Gas, isochoric method, x1 = 0.832	556.221 ± 0.17
424.96 K, 1619.2 kPa, Gas, isochoric method, x1 = 0.832	556.221 ± 0.17
424.96 K, 3854.3 kPa, Liquid, Pycnometric method, x1 = 0.8336	1012.94 ± 3.5
424.96 K, 4517.9 kPa, Liquid, Pycnometric method, x1 = 0.8336	1028.76 ± 3.4
424.96 K, 7331.5 kPa, Liquid, Pycnometric method, x1 = 0.8336	1077.17 ± 2.6
424.96 K, 20744 kPa, Liquid, Pycnometric method, x1 = 0.8336	1193.05 ± 1.9
424.96 K, 49662 kPa, Liquid, Pycnometric method, x1 = 0.8336	1310.9 ± 1.5
424.96 K, 65344 kPa, Liquid, Pycnometric method, x1 = 0.8336	1352.8 ± 1.5
424.97 K, 150.03 kPa, Fluid (supercritical or subcritical phases), Burnett expansion method, x1 = 0.832	5.5536 ± 0.11
424.97 K, 153.48 kPa, Fluid (supercritical or subcritical phases), Burnett expansion method, x1 = 0.832	5.6866 ± 0.11
424.97 K, 215.05 kPa, Fluid (supercritical or subcritical phases), Burnett expansion method, x1 = 0.832	8.0157 ± 0.16
424.97 K, 300.89 kPa, Fluid (supercritical or subcritical phases), Burnett expansion method, x1 = 0.832	11.3011 ± 0.23
424.97 K, 409.41 kPa, Fluid (supercritical or subcritical phases), Burnett expansion method, x1 = 0.832	15.5588 ± 0.31
424.97 K, 444.8 kPa, Gas, isochoric method, x1 = 0.832	131.354 ± 0.093
424.97 K, 518.76 kPa, Fluid (supercritical or subcritical phases), Burnett expansion method, x1 = 0.832	19.9414 ± 0.4
424.97 K, 580.12 kPa, Fluid (supercritical or subcritical phases), Burnett expansion method, x1 = 0.832	22.4579 ± 0.45
424.97 K, 977.19 kPa, Fluid (supercritical or subcritical phases), Burnett expansion method, x1 = 0.832	39.6298 ± 0.8
424.97 K, 1317.5 kPa, Fluid (supercritical or subcritical phases), Burnett expansion method, x1 = 0.832	55.8677 ± 1.1
424.97 K, 3592.7 kPa, Liquid, Pycnometric method, x1 = 0.8336	1005.84 ± 3.6
424.97 K, 4190.2 kPa, Liquid, Pycnometric method, x1 = 0.8336	1021.29 ± 3.4
424.97 K, 4853 kPa, Liquid, Pycnometric method, x1 = 0.8336	1035.91 ± 3
424.97 K, 5457.4 kPa, Liquid, Pycnometric method, x1 = 0.8336	1047.58 ± 3
424.97 K, 6169.4 kPa, Liquid, Pycnometric method, x1 = 0.8336	1059.78 ± 3
424.97 K, 14203 kPa, Liquid, Pycnometric method, x1 = 0.8336	1148.26 ± 2.2
424.97 K, 27900 kPa, Liquid, Pycnometric method, x1 = 0.8336	1230.65 ± 1.7
424.97 K, 35700 kPa, Liquid, Pycnometric method, x1 = 0.8336	1263.74 ± 1.6
424.97 K, 42738 kPa, Liquid, Pycnometric method, x1 = 0.8336	1289.02 ± 1.5
424.97 K, 56282 kPa, Liquid, Pycnometric method, x1 = 0.8336	1329.7 ± 1.5
424.97 K, 61980 kPa, Liquid, Pycnometric method, x1 = 0.8336	1344.58 ± 1.4
429.96 K, 2000.6 kPa, Gas, isochoric method, x1 = 0.832	715.595 ± 0.22
429.96 K, 2000.8 kPa, Gas, isochoric method, x1 = 0.832	715.595 ± 0.66
429.96 K, 2002.4 kPa, Gas, isochoric method, x1 = 0.832	715.595 ± 0.22
474.95 K, 4750 kPa, Fluid (supercritical or subcritical phases), Burnett expansion method, x1 = 0.832	271.514 ± 5.5
474.97 K, 1108 kPa, Fluid (supercritical or subcritical phases), Burnett expansion method, x1 = 0.832	39.0371 ± 0.78
474.98 K, 322.47 kPa, Fluid (supercritical or subcritical phases), Burnett expansion method, x1 = 0.832	10.7116 ± 0.21
474.98 K, 601.7 kPa, Fluid (supercritical or subcritical phases), Burnett expansion method, x1 = 0.832	20.4396 ± 0.41
474.98 K, 1965.5 kPa, Fluid (supercritical or subcritical phases), Burnett expansion method, x1 = 0.832	74.5021 ± 1.5
474.98 K, 1995.2 kPa, Fluid (supercritical or subcritical phases), Burnett expansion method, x1 = 0.832	75.9597 ± 1.5
474.98 K, 3255.8 kPa, Fluid (supercritical or subcritical phases), Burnett expansion method, x1 = 0.832	142.18 ± 2.9
474.98 K, 3296.6 kPa, Fluid (supercritical or subcritical phases), Burnett expansion method, x1 = 0.832	144.503 ± 2.9
474.98 K, 4786.8 kPa, Fluid (supercritical or subcritical phases), Burnett expansion method, x1 = 0.832	274.877 ± 5.5
474.98 K, 5920.1 kPa, Fluid (supercritical or subcritical phases), Burnett expansion method, x1 = 0.832	522.524 ± 11
474.98 K, 13635 kPa, Fluid (supercritical or subcritical phases), Burnett expansion method, x1 = 0.832	993.788 ± 20
474.99 K, 590.67 kPa, Fluid (supercritical or subcritical phases), Burnett expansion method, x1 = 0.832	20.1833 ± 0.4
474.99 K, 1081.5 kPa, Fluid (supercritical or subcritical phases), Burnett expansion method, x1 = 0.832	38.4124 ± 0.77
474.99 K, 1126.1 kPa, Fluid (supercritical or subcritical phases), Burnett expansion method, x1 = 0.832	39.9341 ± 0.8
474.99 K, 1933.1 kPa, Fluid (supercritical or subcritical phases), Burnett expansion method, x1 = 0.832	73.0924 ± 1.5
474.99 K, 3211.7 kPa, Fluid (supercritical or subcritical phases), Burnett expansion method, x1 = 0.832	139.089 ± 2.8
474.99 K, 4708.1 kPa, Fluid (supercritical or subcritical phases), Burnett expansion method, x1 = 0.832	264.786 ± 5.4
475 K, 5875.1 kPa, Fluid (supercritical or subcritical phases), Burnett expansion method, x1 = 0.832	503.942 ± 11
475 K, 5905.8 kPa, Fluid (supercritical or subcritical phases), Burnett expansion method, x1 = 0.832	518.038 ± 11
475 K, 12413 kPa, Fluid (supercritical or subcritical phases), Burnett expansion method, x1 = 0.832	958.868 ± 19
475.01 K, 13484 kPa, Fluid (supercritical or subcritical phases), Burnett expansion method, x1 = 0.832	988.822 ± 20
